The values that follow come from patent US20160060285A1, “Aminoglycosides, Methods of Synthesis, and Associated Applications” (UTAH STATE UNIVERSITY, priority 2010, published 2016).

Series [1] deals with Fusarium graminearum B4-5A. The experiment in a line: microbe, parasite or virus in culture. The class given is cell-based. Conditions: F. graminearum B4-5A; RPMI 1640, 35° C., 48 hour.
Series [2] relates to Staphylococcus aureus ATCC25923. The experiment in a line: Bacterial growth inhibition (MIC) test, microtiter plate, CLSI protocol. The class given is cell-based.
The subject of series [3] is Escherichia coli ATCC 25922. The series is described as above. The class given is cell-based. Conditions: E. coli 25922; Luria-Bertani medium, 37° C., 24 hours.
Another series relates to HeLa cells. The experiment in a line: Cell viability assay (MTT), cytotoxicity test. Format: cell-based, human. Conditions: for Viable Cells Percentage Compared to Control: MTT. How it is done: HeLa cells were grown in commercial DMEM 1× (Gibco) with 10% fetal bovine serum (FBS, Gibco), 100 U/mL penicillin, and 100 μg/mL streptomycin at 37° C. and 5% CO2. The cells were allowed to adhere for 24 h before drug treatment.
The cells were seeded in 96-well microtiter plates (10,000/200 μL). After 24 h of incubation in the media, cells were treated with various concentrations of K608, K4608 and K408 (0.0, 1.0, 10.0, 100.0, 1000 μg/mL and Trition 1×) for 48 h. 20 μL of MTT stock solution (5 mg/mL) was added to each well and incubated for 4 h at 37° C. Upon completion of incubation, the media was carefully removed and washed twice with […] of pbs buffer. Then, 200 μL of DMSO was added to each well; agitated on orbital shaker for 15 min., and the absorbance at 570 nm with 670 nm filter was determined with a microplate reader (Synergy H4). The results are expressed as viability compared with that of control. The experiment was carried out in triplicate in three independent experiments.

Series [4] relates to azole-resistant Candida albicans ATCC 64124. The experiment in a line: Antifungal synergism by checkerboard analysis, K-compound and azole combinations. Format: cell-based. Conditions: for MIC alone: K408 checkerboard table; for MIC alone / MIC: compound alone; for MIC K408 with azole: MIC of K408 when combined with the labelled azole; for MIC with K408: MIC of the labelled azole when combined with K408; for MIC with K4608: MIC of the labelled azole when combined with K4608; for FIC Index (K408 with azole): combination of K408 with the labelled azole; for FIC Index (K408 with azole) / FIC Index (K4608 with azole): synergistic if ≦0.5, indifferent if >0.5-4, antagonistic if >4; for FIC Index (K4608 with azole): combination of K4608 with the labelled azole; for MIC: Candida albicans.

[5] abbreviates: S. aureus 25923, 37° C., 24 hours.
Setting [6] is: first of two separate experiments.
Setting [7] is: second of two separate experiments.
The mark [8] stands for this setting: ATCC64124, K408 checkerboard table, first of two separate experiments.
Setting [9] is: ATCC64124, K408 checkerboard table, second of two separate experiments.
Setting [10] is: ATCC64124, K4608 checkerboard table.

Like-named read-outs stand apart in the source and are kept apart here.

`CCCCOC1C(CO)OC(OC2C(N)CC(N)C(OC3OC(CN)C(O)C(O)C3O)C2O)C(O)C1N` (stereo not drawn) [Compound K404]: the MIC was above 500 mg per L in series [1] and 4-16 mg per L in series [2] (setting [5]).
On to `CCCCCCOC1C(CO)OC(OC2C(N)CC(N)C(OC3OC(CN)C(O)C(O)C3O)C2O)C(O)C1N` (stereo not drawn) [Compound K406], for which the MIC is above 500 mg per L in series [1], 8-64 mg per L in series [2] (setting [5]) and above 250 mg per L in series [3].
Consider `CCCCCCCOC1C(CO)OC(OC2C(N)CC(N)C(OC3OC(CN)C(O)C(O)C3O)C2O)C(O)C1N` (stereo not drawn) [Compound K407], for which the MIC in series [1] is recorded as 125 mg per L; in series [2] it was 125 mg per L; in series [3], above 250 mg per L.
As to `CCCCCCCCCOC1C(CO)OC(OC2C(N)CC(N)C(OC3OC(CN)C(O)C(O)C3O)C2O)C(O)C1N` (stereo not drawn) [Compound K409], the MIC is 62.5 mg per L in series [1], above 250 mg per L in series [2] (setting [5]) and above 250 mg per L in series [3].
Turning to `CCCCCCCCCCOC1C(CO)OC(OC2C(N)CC(N)C(OC3OC(CN)C(O)C(O)C3O)C2O)C(O)C1N` (stereo not drawn) [Compound K410], the MIC in series [1] was 62.5 mg per L; in series [2] (setting [5]), 125 mg per L; in series [3] it was above 250 mg per L.
Taken in the same sequence, the figures for `CCCCCCCCCCCCOC1C(CO)OC(OC2C(N)CC(N)C(OC3OC(CN)C(O)C(O)C3O)C2O)C(O)C1N` (stereo not drawn) [Compound K412] were above 500 mg per L, 64 mg per L and 125-250 mg per L.
For `CCCCCCCCCCCCCCOC1C(CO)OC(OC2C(N)CC(N)C(OC3OC(CN)C(O)C(O)C3O)C2O)C(O)C1N` (stereo not drawn) [Compound K414], the MIC in series [1] is given as above 500 mg per L; in series [2] (setting [5]) it was above 250 mg per L; in series [3], above 250 mg per L.
One may read the cell viability as a per cent measure of how many cells are alive, often set against a control. Turning to `CCCCCCCCOC[C@H]1OC(O[C@@H]2C(N)CC(N)C(O[C@H]3OC(CN)[C@@H](O)[C@H](O)C3O)[C@@H]2O)[C@H](O)[C@H](N)C1O` (stereo partly drawn) [Compound K608], in the series on HeLa cells (1.0 to 1000 μg/mL, 48 h), the “toxicity to human cervical cancer cell line HeLa” value was “not toxic”. Also, the “Viable Cells Percentage Compared to Control” value is given as 79.47% with HeLa cells (HeLa, 1 μg/mL, 48 h); 107.9% in the series with HeLa cells (HeLa, 10 μg/mL, 48 h); 75.36% in the series with HeLa cells (HeLa, 100 μg/mL, 48 h); 86.49% in the series with HeLa cells (HeLa, 1000 μg/mL, 48 h). Further, the cell viability with HeLa cells (HeLa, at all concentration) was around 80%.
Take `CCCCOCC1OC(OC2C(N)CC(N)C(OC3OC(CN)C(O)C(O)C3O)C2O)C(O)C(N)C1OCCCC` (stereo not drawn) [Compound K4604]: the MIC in series [1] is recorded as 125 mg per L; in series [2] (setting [5]), above 250 mg per L; in series [3], above 250 mg per L.
For the molecule `CCCCCCOCC1OC(OC2C(N)CC(N)C(OC3OC(CN)C(O)C(O)C3O)C2O)C(O)C(N)C1OCCCCCC` (stereo not drawn) [Compound K4606], the MIC is given as 3.9 mg per L in series [1], 32-125 mg per L in series [2] (setting [5]) and above 250 mg per L in series [3].
As to `CCCCCCCOCC1OC(OC2C(N)CC(N)C(OC3OC(CN)C(O)C(O)C3O)C2O)C(O)C(N)C1OCCCCCCC` (stereo not drawn) [Compound K4607], the MIC is recorded as 15.6 mg per L in series [1], 8-125 mg per L in series [2] (setting [5]) and 125 mg per L in series [3].
The like results for `CCCCCCCCCOCC1OC(OC2C(N)CC(N)C(OC3OC(CN)C(O)C(O)C3O)C2O)C(O)C(N)C1OCCCCCCCCC` (stereo not drawn) [Compound K4609] were, in that order, 125 mg per L, 8 mg per L and 16 mg per L.
The like results for `CCCCCCCCCCOCC1OC(OC2C(N)CC(N)C(OC3OC(CN)C(O)C(O)C3O)C2O)C(O)C(N)C1OCCCCCCCCCC` (stereo not drawn) [Compound K4610] were, in that order, above 500 mg per L, 16 mg per L and 125 mg per L.
The like results for `CCCCCCCCCCCCOCC1OC(OC2C(N)CC(N)C(OC3OC(CN)C(O)C(O)C3O)C2O)C(O)C(N)C1OCCCCCCCCCCCC` (stereo not drawn) [Compound K4612] were, in that order, above 500 mg per L, 64 mg per L and above 250 mg per L.
As to `CCCCCCCCCCCCCCOCC1OC(OC2C(N)CC(N)C(OC3OC(CN)C(O)C(O)C3O)C2O)C(O)C(N)C1OCCCCCCCCCCCCCC` (stereo not drawn) [Compound K4614], the values for the MIC in series [1], in series [2] (setting [5]) and in series [3] were above 500 mg per L, above 250 mg per L and above 250 mg per L, respectively.
On to `Clc1ccccc1C(c1ccccc1)(c1ccccc1)n1ccnc1` [chlotrimazole], for which, in series [4] (setting [6]), the MIC alone was determined as 3.91 µg/mL, the “MIC K408 with azole” value is 3.91 µg/mL, the “MIC with K408” value worked out at 0.24 mg/L and the “FIC Index (K408 with azole)” value is 0.37. For the same molecule, in series [4] (setting [7]), the MIC alone is 7.81 µg/mL, the “MIC K408 with azole” value is 1.95 µg/mL, the “MIC with K408” value stood at 0.49 mg/L and the “FIC Index (K408 with azole)” value was found to be 0.13. Also, the “MIC K4608 with azole” value in series [4] (MIC of K4608 when combined with the labelled azole, one experiment) was found to be 1.95 µg/mL. In series [4] (one experiment), the “MIC with K4608” value was 3.91 µg/mL and the “FIC Index (K4608 with azole)” value is on record as 0.19.
On to `OC(Cn1cncn1)(Cn1cncn1)c1ccc(F)cc1F` [fluconazole], for which the MIC in series [4] (setting [8]) is 250 µg/mL; in series [4] (setting [9]), 250 µg/mL; in series [4] (setting [10]), above 250 µg/mL. In addition, the “MIC with K408” value in series [4] (setting [6]) is 15.63, 15.63 mg L^−1; in series [4] (setting [7]), 15.63, 15.63 mg L^−1. Moreover, the “MIC with K4608” value in series [4] (one experiment) worked out at 31.25 µg/mL. The “FIC Index (K408 with azole)” value is 0.31, 0.31 in series [4] (setting [6]) and 0.31, 0.31 in series [4] (setting [7]). For the same molecule, the “FIC Index (K4608 with azole)” value in series [4] (one experiment) was found to be 0.25.
Take `CCC(C)n1ncn(-c2ccc(N3CCN(c4ccc(OCC5COC(Cn6cncn6)(c6ccc(Cl)cc6Cl)O5)cc4)CC3)cc2)c1=O` (stereo not drawn) [itraconazole]: the results for the MIC in series [4] (setting [8]), in series [4] (setting [9]) and in series [4] (setting [10]) were 250 µg/mL, 250 µg/mL and above 250 µg/mL, respectively. For the same molecule, the “MIC with K408” value in series [4] (setting [6]) is recorded as 0.98, 0.98 mg L^−1; in series [4] (setting [7]) it was 0.98, 0.98 mg L^−1. Further, the “MIC with K4608” value in series [4] (one experiment) was 3.91 µg/mL. The “FIC Index (K408 with azole)” value in series [4] (setting [6]) is reported as 0.25, 0.25; in series [4] (setting [7]), 0.25, 0.25. Moreover, the “FIC Index (K4608 with azole)” value in series [4] (one experiment) is reported as below 0.52.
For `CC[C@@H]([C@H](C)O)n1ncn(-c2ccc(N3CCN(c4ccc(OC[C@@H]5CO[C@@](Cn6cncn6)(c6ccc(F)cc6F)C5)cc4)CC3)cc2)c1=O` [posaconazole], the MIC in series [4] (setting [8]) is 62.5 µg/mL. In series [4] (setting [9]), the MIC came to 250 µg/mL. In series [4] (setting [6]), the “MIC with K408” value is recorded as 0.24, 0.24 mg L^−1 and the “FIC Index (K408 with azole)” value came to 0.38. For the same molecule, in series [4] (setting [7]), the “MIC with K408” value is 0.24, 0.24 mg L^−1 and the “FIC Index (K408 with azole)” value came to 0.07. In addition, in series [4] (one experiment), the “MIC with K4608” value worked out at 0.49 µg/mL and the “FIC Index (K4608 with azole)” value is below 0.13.
Turning to `C[C@@H](c1ncncc1F)[C@](O)(Cn1cncn1)c1ccc(F)cc1F` [voriconazole], the MIC in series [4] (setting [8]), in series [4] (setting [9]) and in series [4] (setting [10]) was 7.81 µg/mL in each case. For the same molecule, the results for the “MIC with K408” value in series [4] (setting [6]) and in series [4] (setting [7]) were 1.95 mg/L and 0.81 mg/L, respectively. The “MIC with K4608” value in series [4] (one experiment) turned out to be 0.98 µg/mL. Further, the “FIC Index (K408 with azole)” value in series [4] (setting [6]) is 0.38, 0.38; in series [4] (setting [7]) it was 0.38, 0.38. For the same molecule, in series [4] (one experiment), the “FIC Index (K4608 with azole)” value worked out at 0.19.
